Test results published in patent publication US20240010684A1, “MASP INHIBITORY COMPOUNDS AND USES THEREOF” (BAYER AKTIENGESELLSCHAFT, priority 2020, published 2024).
Where a SMILES comes first, the peptide text is derived from it. Bridges are numbered along the chain shown (N, C = ends). [ ]: non-standard residue; d: D form. ξ: configuration not given here. Oic = O=C(O)[C@@H]1C[C@@H]2CCCC[C@@H]2N1; Trx = NC[C@H]1CC[C@H](C(=O)O)CC1; tBuAla = CC(C)(C)C[C@H](N)C(=O)O; Pen = CC(C)(S)[C@H](N)C(=O)O; NMeC = CN[C@@H](CS)C(=O)O; Orn = NCCC[C@H](N)C(=O)O; Dab = NCC[C@H](N)C(=O)O; Dap = NC[C@H](N)C(=O)O; ξD = NC(CC(=O)O)C(=O)O; Ahx = NCCCCCC(=O)O

What was measured:
[1] = system: Human C3-DEPOSITION SERUM; assay: C3 deposition assay, human serum on mannan-coated plates; type: biochemical; settings: Average IC50, read-out: Human C3-DEPOSITION SERUM IC50
Experimental: 3. C3 Deposition Assay (Human, Rat, Mouse, Dog, Pig))
The C3 deposition assay was conducted essentially as described (reference). Multiwell plates (Greiner-Nunc 384 Maxi Sorp #464718) were coated over night with Mannan from Saccharomyces cerevisiae (Sigma M7504, 10 μg/mL in 0.05 M carbonate-bicarbonate buffer, pH 9.6) at 4° C. Wells were washed three times with TBS and subsequently incubated for 2 hours with 50 μL of 1% bovine serum albumin (BSA) in Tris-buffered saline (TBS) at 37° C. in order to block non-specific binding. After this step and each of the following incubation steps wells were washed three times with C3 wash buffer (TBS; 0.05% Tween 20; 5 mM CaCl2). […] When appropriately developed the color reaction was stopped by addition of 25 μL of stop solution (Sigma S5814) and quantified on a photometer by measuring absorption at a wavelength of 450 nm. Antibodies were diluted in C3 wash buffer supplemented with 0.5% BSA.

human MASP2 = human MASP2 (Homo sapiens (Human), UniProt O00187); assay: Biochemical human MASP2 assay (FRET substrate); settings: Average IC50; recombinant human MASP2; read-out: human MASP2 IC50
Outline: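 Mature recombinant human MASP2, expressed in HEK293 and purified by Ni-NTA affinity, was reacted with a DABCYL FRET peptide substrate (added as a 60 μM solution) for 60-120 min at 32 C. Fluorescence increase was read at ex 340/em 490 nm; IC50 was derived from % inhibition versus compound concentration.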

human MASP1 = human MASP1 (Homo sapiens (Human), UniProt P48740); assay: Biochemical human MASP1 assay (FRET substrate); settings: Average IC50; recombinant human MASP1; read-out: human MASP1 IC50
Outline: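 Recombinant human MASP1 (aa 297-699, C-terminal His tag, HEK293-expressed, Ni-NTA purified) diluted to 20 nM in 50 mM HEPES pH 8,0, 100 mM NaCl, 0,01% CHAPS, 0.5 mM glutathione, preincubated with compound in DMSO; reaction started with 20 μM ABZ/Dnp FRET substrate solution. Fluorescence (ex 320/em 420 nm) after 60-120 min at 32 C; IC50 from % inhibition.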

human MASP1, sequence (P48740 other isoform, or with tags, fused parts or gaps): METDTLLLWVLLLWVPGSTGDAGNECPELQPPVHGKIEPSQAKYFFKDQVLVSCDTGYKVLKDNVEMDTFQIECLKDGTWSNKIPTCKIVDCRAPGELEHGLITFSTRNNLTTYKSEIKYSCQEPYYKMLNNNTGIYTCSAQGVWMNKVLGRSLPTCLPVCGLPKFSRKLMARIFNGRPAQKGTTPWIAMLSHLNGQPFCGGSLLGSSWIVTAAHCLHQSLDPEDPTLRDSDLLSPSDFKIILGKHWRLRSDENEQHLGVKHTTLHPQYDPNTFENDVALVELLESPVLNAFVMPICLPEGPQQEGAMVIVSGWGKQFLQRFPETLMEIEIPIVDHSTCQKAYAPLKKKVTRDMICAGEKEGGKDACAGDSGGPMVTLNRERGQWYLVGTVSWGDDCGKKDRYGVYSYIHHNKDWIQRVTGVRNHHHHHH
human MASP2, sequence (O00187 other isoform, or with tags, fused parts or gaps): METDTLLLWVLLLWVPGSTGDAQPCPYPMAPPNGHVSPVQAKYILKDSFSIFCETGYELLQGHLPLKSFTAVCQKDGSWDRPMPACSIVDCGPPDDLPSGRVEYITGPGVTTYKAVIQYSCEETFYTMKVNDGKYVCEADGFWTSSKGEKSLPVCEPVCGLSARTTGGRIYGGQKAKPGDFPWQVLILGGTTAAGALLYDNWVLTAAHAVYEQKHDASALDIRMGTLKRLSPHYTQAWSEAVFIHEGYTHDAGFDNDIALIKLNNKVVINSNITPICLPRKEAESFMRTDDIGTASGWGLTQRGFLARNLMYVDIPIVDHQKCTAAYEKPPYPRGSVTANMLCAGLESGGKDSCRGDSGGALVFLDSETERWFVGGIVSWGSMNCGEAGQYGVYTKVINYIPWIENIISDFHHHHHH

Structure (SMILES) | IC50 [1] | IC50 (human MASP2) | IC50 (human MASP1)
CC[C@H](C)[C@@H]1NC(=O)CNC(=O)[C@H]2CC[C@@H](CC2)CNC(=O)CNC(=O)CC(C(N)=O)NC(=O)[C@@H]2CCCN2C(=O)[C@H]([C@@H](C)CC)NC(=O)[C@H]2NC(=O)[C@H]([C@@H](C)CC)NC(=O)[C@@H]3CCCN3C(=O)[C@@H]3CCCN3C(=O)[C@H](CC(C)(C)C)NC(=O)[C@H](CO)NC(=O)[C@H](CCCNC(=N)N)NC(=O)[C@H](CO)NC(=O)[C@H](CSSC2(C)C)NC1=O (stereo partly drawn) [Example 62, (1R,4S,10S,21S,24S,30S,33R,36S,39S,42S,45S,51S,57S,60S)-4,30,60-tri[(2S)-butan-2-yl]-39-(3-carbamimidamidopropyl)-45-(2,2-dimethylpropyl)-36,42-bis(hydroxymethyl)-63,63-dimethyl-2,5,11,15,18,25,28,31,34,37,40,43,46,52,58,61-hexadecaoxo-64,65-dithia-3,6,12,16,19,26,29,32,35,38,41,44,47,53,59,62-hexadecaazahexacyclo[31.29.4.2^21,240.0^6,100.0^47,510.0^53,57]octahexacontane-13-carboxamide] (G[Trx]GICSRS[tBuAla]PPI[Pen]IP[ξD]-NH2; disulfide 5-13; lactam N-16) | 149 nM | 540 nM | 22 nM
CC[C@H](C)[C@@H]1NC(=O)[C@H](CCN)NC(=O)[C@@H]2CCCN2C(=O)[C@H]([C@@H](C)CC)NC(=O)[C@H]2NC(=O)[C@H]([C@@H](C)CC)NC(=O)[C@@H]3CCCN3C(=O)[C@@H]3CCCN3C(=O)[C@H](CC(C)(C)C)NC(=O)[C@H](CO)NC(=O)[C@H](CCCNC(=N)N)NC(=O)[C@H](CO)NC(=O)[C@H](CSSC2(C)C)NC1=O [Example 56, N-{3-[(6S,9S,12S,15S,18R,21S,24S,26aS,32S,35R,38S,40aS,45aS)-24-(2-aminoethyl)-21,32,38-tri[(2S)-butan-2-yl]-6-(2,2-dimethylpropyl)-9,15-bis(hydroxymethyl)-46,46-dimethyl-5,8,11,14,17,20,23,26,31,34,37,40,45-tridecaoxotetratetracontahydro-1H-18,35-(methanodithiomethano)tripyrrolo[1,2-a:1′,2′-d:1″,2″-p]-[1,4,7,10,13,16,19,22,25,28,31,34,37]tridecaazacyclononatriacontin-12-yl]propyl}guanidine] (cyclo(CSRS[tBuAla]PPI[Pen]IP[Dab]I); disulfide 1-9) | 566 nM | 1100 nM | 86 nM
CC[C@H](C)[C@@H]1NC(=O)[C@H](C)NC(=O)[C@@H](N)CCCNC(=O)C[C@@H](C(N)=O)NC(=O)[C@@H]2CCCN2C(=O)[C@H]([C@@H](C)CC)NC(=O)[C@H]2NC(=O)[C@H]([C@@H](C)CC)NC(=O)[C@@H]3CCCN3C(=O)[C@@H]3CCCN3C(=O)[C@H](CC(C)(C)C)NC(=O)[C@H](CO)NC(=O)[C@H](CCCNC(=N)N)NC(=O)[C@H](CO)NC(=O)[C@H](CSSC2(C)C)NC1=O [Example 61] (H-[Orn]AICSRS[tBuAla]PPI[Pen]IPD-NH2; lactam 1-15; disulfide 4-12) | 23.4 nM | 310 nM | 3.1 nM
CC[C@H](C)[C@@H]1NC(=O)[C@H](CN)NC(=O)[C@@H](N)CNC(=O)[C@@H]2CCCN2C(=O)[C@H]([C@@H](C)CC)NC(=O)[C@H]2NC(=O)[C@H]([C@@H](C)CC)NC(=O)[C@@H]3C[C@@H]4CCCC[C@@H]4N3C(=O)[C@@H]3CCCN3C(=O)[C@H](CC(C)C)NC(=O)[C@H](CO)NC(=O)[C@H](CCCNC(=N)N)NC(=O)[C@H](CO)NC(=O)[C@H](CSSC2(C)C)NC1=O [Example 86] (H-[Dap][Dap]ICSRSLP[Oic]I[Pen]IP; lactam 1-C; disulfide 4-12) | 46.3 nM | 1000 nM | 27 nM
CC[C@H](C)[C@@H]1NC(=O)[C@@H](N)CNC(=O)[C@@H]2CCCN2C(=O)[C@H]([C@@H](C)CC)NC(=O)[C@H]2NC(=O)[C@H]([C@@H](C)CC)NC(=O)[C@@H]3C[C@@H]4CCCC[C@@H]4N3C(=O)[C@@H]3CCCN3C(=O)[C@H](CC(C)C)NC(=O)[C@H](CO)NC(=O)[C@H](CCCNC(=N)N)NC(=O)[C@H](CO)NC(=O)[C@H](CSSC2(C)C)NC1=O [Example 85] (H-[Dap]ICSRSLP[Oic]I[Pen]IP; lactam 1-C; disulfide 3-11) | 3130 nM | 1000 nM | 1000 nM
CC[C@H](C)[C@@H]1NC(=O)[C@H](C)NC(=O)CCCCCNC(=O)[C@H](CC(=O)O)NC(=O)[C@@H]2CCCN2C(=O)[C@H]([C@@H](C)CC)NC(=O)[C@@H]2CSSC[C@H](NC1=O)C(=O)N[C@@H](CO)C(=O)N[C@@H](CCCNC(=N)N)C(=O)N[C@@H](CO)C(=O)N[C@@H](CC(C)(C)C)C(=O)N1CCC[C@H]1C(=O)N1CCC[C@H]1C(=O)N[C@@H]([C@@H](C)CC)C(=O)N2 [Example 46] (cyclo(AICSRS[tBuAla]PPICIPD[Ahx]); disulfide 3-11) | 228 nM | 89 nM | 56 nM
CC[C@H](C)[C@@H]1NC(=O)CNC(=O)[C@H]2CC[C@@H](CC2)CNC(=O)CNC(=O)C[C@@H](C(N)=O)NC(=O)[C@@H]2CCCN2C(=O)[C@H]([C@@H](C)CC)NC(=O)[C@@H]2CSSC[C@H](NC1=O)C(=O)N[C@@H](CO)C(=O)N[C@@H](CCCNC(=N)N)C(=O)N[C@@H](CO)C(=O)N[C@@H](CC(C)(C)C)C(=O)N1CCC[C@H]1C(=O)N1CCC[C@H]1C(=O)N[C@@H]([C@@H](C)CC)C(=O)N2C [Example 69, (1R,4S,10S,13S,21S,24S,30S,33R,36S,39S,42S,45S,51S,57S,60S)-4,30,60-tri[(2S)-butan-2-yl]-39-(3-carbamimidamidopropyl)-45-(2,2-dimethylpropyl)-36,42-bis(hydroxymethyl)-62-methyl-2,5,11,15,18,25,28,31,34,37,40,43,46,52,58,61-hexadecaoxo-64,65-dithia-3,6,12,16,19,26,29,32,35,38,41,44,47,53,59,62-hexadecaazahexacyclo[31.29.4.2^21,240.0^6,100.0^47,510.0^53,57]octahexacontane-13-carboxamide] (G[Trx]GICSRS[tBuAla]PPI[NMeC]IPD-NH2; disulfide 5-13; lactam N-16) | 364 nM | 190 nM | 20 nM
CC[C@H](C)[C@@H]1NC(=O)[C@H]2NC(=O)[C@H]([C@@H](C)CC)NC(=O)[C@@H]3CCCN3C(=O)[C@@H]3CCCN3C(=O)[C@H](CC(C)(C)C)NC(=O)[C@H](CO)NC(=O)[C@H](CCCNC(=N)N)NC(=O)[C@H](CO)NC(=O)[C@H](CSSC2(C)C)NC(=O)[C@H]([C@@H](C)CC)NC(=O)[C@@H](N)CCCCNC1=O [Example 67, N-{3-[(5aS,11S,14S,17S,20S,23R,26S,29S,36S,39R,42S,44aS)-29-amino-26,36,42-tri[(2S)-butan-2-yl]-11-(2,2-dimethylpropyl)-14,20-bis(hydroxymethyl)-45,45-dimethyl-5,10,13,16,19,22,25,28,35,38,41,44-dodecaoxodotetracontahydro-1H,5H-23,39-(methanodithiomethano)dipyrrolo[2,1-1:2′,1′-o][1,4,7,10,13,16,19,22,25,28,31,34]dodecaazacyclotetracontin-17-yl]propyl}guanidine] (H-KICSRS[tBuAla]PPI[Pen]I; lactam 1-C; disulfide 3-11) | 19.1 nM | 150 nM | 3.25 nM
CC[C@H](C)[C@@H]1NC(=O)CCCNC(=O)[C@H](CC(=O)O)NC(=O)[C@@H]2CCCN2C(=O)[C@H]([C@@H](C)CC)NC(=O)[C@@H]2CSSC[C@H](NC1=O)C(=O)N[C@@H](CO)C(=O)N[C@@H](CCCNC(=N)N)C(=O)N[C@@H](CO)C(=O)N[C@@H](CC(C)(C)C)C(=O)N1CCC[C@H]1C(=O)N1CCC[C@H]1C(=O)N[C@@H]([C@@H](C)CC)C(=O)N2C [Example 36] | 8.68 nM | 110 nM | 8.7 nM
CC[C@H](C)[C@@H]1NC(=O)[C@H]2NC(=O)[C@H]([C@@H](C)CC)NC(=O)[C@@H]3CCCN3C(=O)[C@@H]3CCCN3C(=O)[C@H](CC(C)(C)C)NC(=O)[C@H](CO)NC(=O)[C@H](CCCNC(=N)N)NC(=O)[C@H](CO)NC(=O)[C@H](CSSC2(C)C)NC(=O)[C@H]([C@@H](C)CC)NC(=O)[C@@H](N)CCCNC1=O [Example 66, N-{3-[(5aS,11S,14S,17S,20S,23R,26S,29R,35S,38S,41S,43aS)-29-amino-26,35,41-tri[(2S)-butan-2-yl]-11-(2,2-dimethylpropyl)-14,20-bis(hydroxymethyl)-44,44-dimethyl-5,10,13,16,19,22,25,28,34,37,40,43-dodecaoxodotetracontahydro-5H-23,38-(methanodithiomethano)dipyrrolo[2,1-1:2′,1′-o][1,4,7,10,13,16,19,22,25,28,31,34]dodecaazacyclononatriacontin-17-yl]propyl}guanidine] (H-[Orn]ICSRS[tBuAla]PPI[Pen]I; lactam 1-C; disulfide 3-11) | 25.8 nM | 22 nM | 8.1 nM
